Laboratory results as given in patent US20150218172A1, “Pyrrolo[2,3-D]Pyrimidine Tropomyosin-Related Kinase Inhibitors” (PFIZER LIMITED, priority 2012, published 2015).

Biological target: T1, TrkA (Homo sapiens, UniProt P04629)
T1 construct: aa 441-796; His; purchased Invitrogen PV3144
Assay: Isolated TRK enzyme assay (HTRF KinEASE-TK kit), PV3144 TrkA enzyme assay
Assay type: biochemical
Details: PV3144 TrkA enzyme assay, recombinant His-tagged cytoplasmic domain aa 441-796, 4 nM enzyme, 40 uM ATP; arithmetic mean where more than one reading; read-out: Trka enzyme (IC50)
Procedure: Isolated TRK Enzyme assays use the HTRF KinEASE-TK kit (Cisbio Cat#62TK0PEJ) with recombinant His-tagged cytoplasmic domains of each TRK receptor sourced from Invitrogen (see table below). This activity-assay measures the phosphorylation of tyrosine residues within a substrate from the HTRF kit which has been validated by Cisbio for a variety of tyrosine kinases including the TRK receptors.
0.5 mM stock solutions of test compounds are prepared and serially diluted in 100% DMSO. A standard curve using the compound of Example 135 disclosed in WO2005/116035 of 150 uM is also prepared on each test plate. High percentage effect (HPE) is defined by 150 uM (using the compound of Example 135 as disclosed in WO2005/116035) and 0% effect (ZPE) is defined by 100% DMSO. Greiner low volume black plates containing 0.2 ul of serially diluted compound, standard and HPE/ZPE are created using the Bravo nanolitre dispenser.
1X enzyme buffer is prepared from 5X Enzymatic Buffer from the Cisbio KinEASE TK kit using MilliQ water. The buffer is then supplemented with 10 mM MgCl and 2 mM DTT (both from Sigma). In the case of TRKB, the buffer is also supplemented with 125 nM Supplement Enzymatic Buffer (SEB) from the Cisbio kit.
2X FAC of enzyme and 2X FAC ATP diluted in 1X complete enzyme buffer is incubated at room temperature for 20 minutes to preactivate the enzyme. Following this preactivation step, 5 ul/well of enzyme+ATP mix is added using a Multidrop Micro to the assay plate, spotted with 0.2 ul 100% DMSO compound. This is left for 20 mins at room temperature before adding 5 ul of 2 uM TK-substrate-Biotin (from the Cisbio kit) diluted in 1X enzyme buffer (1 uM FAC) using the Multidrop Micro. The reaction is incubated at room temperature for the optimized assay reaction time (see table). The reaction is stopped by adding 10 ul/well HTRF Detection Buffer containing 0.25 uM Streptavidin-XL665 (0.125 uM FAC) and 1:200 TK Antibody-Cryptate using a Multidrop.
After the Detection Reagent addition, plates are covered and incubated at room temperature for 60 minutes. HTRF signal is read using an Envision reader, measured as a ratio of emissions at two different wavelengths, 620 nm and 665 nm. […] Test compound data are expressed as percentage inhibition defined by HPE and ZPE values for each plate. Percentage inhibition in the presence of test compound is plotted against compound concentration on a log scale to determine an IC50 from the resultant sigmoid curve.
Below are TrkA IC50 data generated using the PV3144 TrkA enzyme assay. Where more than one reading was taken, the arithmetic mean is presented.

T1 sequence (P04629 441-796): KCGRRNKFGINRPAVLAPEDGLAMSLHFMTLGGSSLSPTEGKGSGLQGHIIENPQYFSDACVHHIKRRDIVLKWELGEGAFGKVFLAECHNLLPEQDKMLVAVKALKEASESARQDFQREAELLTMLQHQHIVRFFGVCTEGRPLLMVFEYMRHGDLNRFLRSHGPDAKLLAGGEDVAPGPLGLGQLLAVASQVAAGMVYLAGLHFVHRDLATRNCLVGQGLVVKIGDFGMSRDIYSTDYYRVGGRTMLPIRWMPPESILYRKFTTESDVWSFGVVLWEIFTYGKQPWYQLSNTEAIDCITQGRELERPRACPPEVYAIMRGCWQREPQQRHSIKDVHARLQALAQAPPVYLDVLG

Row | SMILES | IC50
1 | O=C(Cc1ccc(OC(F)(F)F)cc1)Nc1cc(C(=O)c2cn(CCO)c3ncncc23)ccn1 [Example 144, N-(4-{[7-(2-hydroxyethyl)-7H-pyrrolo[2,3-d]pyrimidin-5-yl]carbonyl}pyridin-2-yl)-2-[4-(trifluoromethoxy)phenyl]acetamide] | 111 nM
2 | CC(C)n1cc(C(=O)c2ccnc(NC(=O)Cc3ccccc3Cl)c2)c2cncnc21 [Example 159, 2-(2-chlorophenyl)-N-(4-{[7-(propan-2-yl)-7H-pyrrolo[2,3-d]pyrimidin-5-yl]carbonyl}pyridin-2-yl)acetamide] | 53.6 nM
3 | Cc1cc(C)n(CC(=O)Nc2cc(C(=O)c3cn(CCO)c4ncncc34)ccn2)n1 [Example 139, 2-(3,5-dimethyl-1H-pyrazol-1-yl)-N-(4-{[7-(2-hydroxyethyl)-7H-pyrrolo[2,3-d]pyrimidin-5-yl]carbonyl}pyridin-2-yl)acetamide] | 760 nM
4 | Cc1ccnn1CC(=O)Nc1cc(C(=O)c2cn(CCO)c3ncncc23)ccn1 [Example 130, N-(4-{[7-(2-hydroxyethyl)-7H-pyrrolo[2,3-d]pyrimidin-5-yl]carbonyl}pyridin-2-yl)-2-(5-methyl-1H-pyrazol-1-yl)acetamide] | 1750 nM
5 | C[C@@H](CO)n1cc(C(=O)c2cc(NC(=O)Cn3cc(C(F)(F)F)nn3)ccn2)c2cncnc21 [Example 31, N-[2-({7-[(2S)-1-hydroxypropan-2-yl]-7H-pyrrolo[2,3-d]pyrimidin-5-yl}carbonyl)pyridin-4-yl]-2-[4-(trifluoromethyl)-1H-1,2,3-triazol-1-yl]acetamide] | 78.1 nM
6 | O=C(Cc1ccc(C(F)(F)F)c(F)c1)Nc1ccnc(C(=O)c2cn(C(CO)CO)c3ncncc23)c1 [Example 94, N-(2-{[7-(1,3-dihydroxypropan-2-yl)-7H-pyrrolo[2,3-d]pyrimidin-5-yl]carbonyl}pyridin-4-yl)-2-[3-fluoro-4-(trifluoromethyl)phenyl]acetamide] | 922 nM
7 | N#Cc1ccc(CC(=O)Nc2cc(C(=O)c3cn(C4CC4)c4ncncc34)ccn2)cc1 [Example 175, 2-(4-cyanophenyl)-N-{4-[(7-cyclopropyl-7H-pyrrolo[2,3-d]pyrimidin-5-yl)carbonyl]pyridin-2-yl}acetamide] | 407 nM
8 | Cc1cc(C(F)(F)F)nn1CC(=O)Nc1cc(C(=O)c2cn(C(C)C)c3nc(O)ncc23)ccn1 [Example 125, N-(4-{[2-hydroxy-7-(propan-2-yl)-7H-pyrrolo[2,3-d]pyrimidin-5-yl]carbonyl}pyridin-2-yl)-2-[5-methyl-3-(trifluoromethyl)-1H-pyrazol-1-yl]acetamide] | 250 nM
9 | Cc1cc(C(=O)c2cn(C(C)C)c3ncncc23)cc(NC(=O)Cc2ccc(F)cc2)n1 [Example 77, 2-(4-fluorophenyl)-N-(6-methyl-4-{[7-(propan-2-yl)-7H-pyrrolo[2,3-d]pyrimidin-5-yl]carbonyl}pyridin-2-yl)acetamide] | 226 nM
10 | O=C(Cc1cccc(Cl)c1)Nc1cc(C(=O)c2cn(CCO)c3ncncc23)ccn1 [Example 146, 2-(3-chlorophenyl)-N-(4-{[7-(2-hydroxyethyl)-7H-pyrrolo[2,3-d]pyrimidin-5-yl]carbonyl}pyridin-2-yl)acetamide] | 246 nM
11 | CC(C)c1ccnn1CC(=O)Nc1cc(C(=O)c2cn(C(C)C)c3ncncc23)ccn1 [Example 148, 2-[5-(propan-2-yl)-1H-pyrazol-1-yl]-N-(4-{[7-(propan-2-yl)-7H-pyrrolo[2,3-d]pyrimidin-5-yl]carbonyl}pyridin-2-yl)acetamide] | 185 nM
12 | CC(CO)(CO)n1cc(C(=O)c2cc(NC(=O)Cc3ccc(Cl)cc3)ccn2)c2cncnc21 [Example 102, 2-(4-chlorophenyl)-N-(2-{[7-(1,3-dihydroxy-2-methylpropan-2-yl)-7H-pyrrolo[2,3-d]pyrimidin-5-yl]carbonyl}pyridin-4-yl)acetamide] | 96.6 nM
13 | N#Cc1ccc(CC(=O)Nc2cc(C(=O)c3cn(CCO)c4ncncc34)ccn2)cc1 [Example 143, 2-(4-cyanophenyl)-N-(4-{[7-(2-hydroxyethyl)-7H-pyrrolo[2,3-d]pyrimidin-5-yl]carbonyl}pyridin-2-yl)acetamide] | 268 nM
14 | CC(C)(CO)n1cc(C(=O)c2cc(NC(=O)Cc3ccc(C#N)cc3)ccn2)c2cncnc21 [Example 57, 2-(4-cyanophenyl)-N-(2-{[7-(1-hydroxy-2-methylpropan-2-yl)-7H-pyrrolo[2,3-d]pyrimidin-5-yl]carbonyl}pyridin-4-yl)acetamide] | 66.1 nM
15 | O=C(Cc1ccc(Cl)c(Cl)c1)Nc1ccnc(C(=O)c2cn(C(CO)CO)c3ncncc23)c1 [Example 99, 2-(3,4-dichlorophenyl)-N-(2-{[7-(1,3-dihydroxypropan-2-yl)-7H-pyrrolo[2,3-d]pyrimidin-5-yl]carbonyl}pyridin-4-yl)acetamide] | 430 nM
16 | Cc1cc(C)n(CC(=O)Nc2cc(C(=O)c3cn(C(CO)CO)c4ncncc34)ccn2)n1 [Example 112, 2-(3,5-Dimethyl-1H-pyrazol-1-yl)-N-[4-({7-[2-hydroxy-1-(hydroxymethyl)ethyl]-7H-pyrrolo[2,3-d]pyrimidin-5-yl}carbonyl)pyridin-2-yl]acetamide] | 682 nM
17 | Cc1cc(C)n(CC(=O)Nc2cc(C(=O)c3cn([C@H]4CC[C@H](O)CC4)c4ncncc34)ccn2)n1 [Example 3, 2-(3,5-dimethyl-1H-pyrazol-1-yl)-N-(4-{[7-(trans-4-hydroxycyclohexyl)-7H-pyrrolo[2,3-d]pyrimidin-5-yl]carbonyl}pyridin-2-yl)acetamide] | 183 nM

Continued, values first:

Row | IC50 | SMILES
18 | 48.2 nM | Cc1cc(C(F)(F)F)nn1CC(=O)Nc1cc(C(=O)c2cn(CCO)c3ncncc23)ccn1 [Example 132, N-(4-{[7-(2-hydroxyethyl)-7H-pyrrolo[2,3-d]pyrimidin-5-yl]carbonyl}pyridin-2-yl)-2-[5-methyl-3-(trifluoromethyl)-1H-pyrazol-1-yl]acetamide]
19 | 10.9 nM | Cc1cc(C(F)(F)F)nn1CC(=O)Nc1cc(C(=O)c2cn(C(C)C)c3ncncc23)ccc1C#N [Example 35, N-(2-cyano-5-{[7-(propan-2-yl)-7H-pyrrolo[2,3-d]pyrimidin-5-yl]carbonyl}phenyl)-2-[5-methyl-3-(trifluoromethyl)-1H-pyrazol-1-yl]acetamide]
20 | 46.2 nM | CC(C)(CO)n1cc(C(=O)c2cc(NC(=O)Cn3cc(C(F)(F)F)nn3)ccn2)c2cncnc21 [Example 54, N-(2-{[7-(1-hydroxy-2-methylpropan-2-yl)-7H-pyrrolo[2,3-d]pyrimidin-5-yl]carbonyl}pyridin-4-yl)-2-[4-(trifluoromethyl)-1H-1,2,3-triazol-1-yl]acetamide]
21 | 52.9 nM | CC1(n2cc(C(=O)c3cc(NC(=O)Cc4cccc(C(F)(F)F)c4)ccn3)c3cncnc32)COC1 [Example 166, N-(2-{[7-(3-methyloxetan-3-yl)-7H-pyrrolo[2,3-d]pyrimidin-5-yl]carbonyl}pyridin-4-yl)-2-[3-(trifluoromethyl)phenyl]acetamide]
22 | 10.7 nM | CC(C)(C)n1cc(C(=O)c2cc(NC(=O)Cn3ccc(C(F)(F)F)n3)ccn2)c2cncnc21 [Example 41, N-{2-[(7-tert-butyl-7H-pyrrolo[2,3-d]pyrimidin-5-yl)carbonyl]pyridin-4-yl}-2-[3-(trifluoromethyl)-1H-pyrazol-1-yl]acetamide]
23 | 12.3 nM | CC(C)(CO)n1cc(C(=O)c2cc(NC(=O)Cn3ccc(C(F)(F)F)n3)ccn2)c2cncnc21 [Example 59, N-(2-{[7-(1-hydroxy-2-methylpropan-2-yl)-7H-pyrrolo[2,3-d]pyrimidin-5-yl]carbonyl}pyridin-4-yl)-2-[3-(trifluoromethyl)-1H-pyrazol-1-yl]acetamide]
24 | 42.1 nM | CC(C)n1cc(C(=O)c2ccnc(NC(=O)Cc3cccc(S(C)(=O)=O)c3)c2)c2cncnc21 [Example 123, 2-[3-(methylsulfonyl)phenyl]-N-(4-{[7-(propan-2-yl)-7H-pyrrolo[2,3-d]pyrimidin-5-yl]carbonyl}pyridin-2-yl)acetamide]
25 | 6.43 nM | CC(C)n1cc(C(=O)c2cc(NC(=O)Cc3ccc(Cl)cc3)ccn2)c2cnc(N)nc21 [Example 87, N-(2-{[2-amino-7-(propan-2-yl)-7H-pyrrolo[2,3-d]pyrimidin-5-yl]carbonyl}pyridin-4-yl)-2-(4-chlorophenyl)acetamide]
